pIC50: −log10 of the molar value.
Biological target: T1, human MC5R (hMC5R) (Homo sapiens, UniProt P33032)
T1 construct: purchased Perkin Elmer RBXMC5M400UA
Test: Human MC5R radioligand binding assay (membranes, [125I] NDP-MSH displacement)
Conditions: hMC5R binding; tested as trifluoroacetate or hydrochloride salts, or free bases; read-out: MC5R radioligand IC50
In short: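 Frozen human MC5R membranes incubated with test compound and in-house iodogen-labeled, HPLC-purified [125I]NDP-MSH for 1 hr at 37° C. Binding measured as displacement of the radioligand.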

T1 sequence (P33032 whole entry): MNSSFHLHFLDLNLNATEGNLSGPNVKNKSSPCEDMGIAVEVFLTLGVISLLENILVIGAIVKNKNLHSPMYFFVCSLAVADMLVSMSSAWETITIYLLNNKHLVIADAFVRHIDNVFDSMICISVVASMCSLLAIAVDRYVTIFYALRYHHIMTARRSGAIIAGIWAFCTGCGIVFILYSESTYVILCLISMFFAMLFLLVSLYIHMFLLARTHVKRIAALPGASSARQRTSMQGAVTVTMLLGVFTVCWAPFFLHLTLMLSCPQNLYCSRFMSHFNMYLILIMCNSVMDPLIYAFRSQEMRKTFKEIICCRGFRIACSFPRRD

pIC50	Structure (SMILES)
> 7.00	CC[C@H](CN1CC[C@@H](CNC(=O)c2ccc(Cl)c(Cl)c2)N[C@@H](CCN2CCNCC2)C1=O)c1ccccc1 [Compound 443, 3,4-dichloro-N-(((3S,5S)-2-oxo-1-((S)-2-phenylbutyl)-3-(2-(piperazin-1-yl)ethyl)-1,4-diazepan-5-yl)methyl)benzamide]
> 8.00	O=C(/C=C/c1ccc(F)cc1)NC[C@@H]1CCN(CC(c2ccccc2)c2ccccc2)C(=O)[C@H](CCN2CCCCC2)N1 [Compound 284, (E)-N-(((3S,5S)-1-(2,2-diphenylethyl)-2-oxo-3-(2-(piperidin-1-yl)ethyl)-1,4-diazepan-5-yl)methyl)-3-(4-fluorophenyl)acrylamide]
> 7.00	CC[C@H](CN1CC[C@@H](CNC(=O)c2ccc3cc(Cl)ccc3c2)N[C@@H](CCN2CCCCCC2)C1=O)c1ccccc1 [Compound 493, N-(((3S,5S)-3-(2-(azepan-1-yl)ethyl)-2-oxo-1-((S)-2-phenylbutyl)-1,4-diazepan-5-yl)methyl)-6-chloro-2-naphthamide]
> 6.00	CC[C@H](CN1CC[C@@H](CNC(=O)c2ccc3cc(Cl)ccc3c2)N[C@@H](CCCNC(N)=O)C1=O)c1ccccc1 [Compound 490, 6-chloro-N-(((3S,5S)-2-oxo-1-((S)-2-phenylbutyl)-3-(3-ureidopropyl)-1,4-diazepan-5-yl)methyl)-2-naphthamide]
> 7.00	O=C(C=Cc1ccccc1)NC[C@@H]1CCN(CC(c2ccccc2)c2ccccc2)C(=O)[C@H](CCCN2CCCCC2)N1 [Compound 266, N-(((3S,5S)-1-(2,2-diphenylethyl)-2-oxo-3-(3-(piperidin-1-yl)propyl)-1,4-diazepan-5-yl)methyl)cinnamamide]
> 7.00	CCC(CC)CN1CC[C@@H](CNC(=O)c2ccc3cc(F)ccc3c2)N[C@@H](CCN2CCCCC2)C1=O [Compound 372, N-(((3S,5S)-1-(2-ethylbutyl)-2-oxo-3-(2-(piperidin-1-yl)ethyl)-1,4-diazepan-5-yl)methyl)-6-fluoro-2-naphthamide]
> 7.00	CC[C@H](CN1CCC(CNC(=O)c2ccc3cc(Cl)ccc3c2)NC(C2CCN(CC)CC2)C1=O)c1ccccc1 (stereo partly drawn) [Compound 455, 6-chloro-N-((3-(1-ethylpiperidin-4-yl)-2-oxo-1-((S)-2-phenylbutyl)-1,4-diazepan-5-yl)methyl)-2-naphthamide]
> 7.00	O=C(NC[C@@H]1CCN(CC(c2ccccc2)c2ccccc2)C(=O)[C@H](CCCNCc2ccccc2)N1)c1ccc2ccccc2c1 [Compound 245, N-(((3S,5S)-3-(3-(benzylamino)propyl)-1-(2,2-diphenylethyl)-2-oxo-1,4-diazepan-5-yl)methyl)-2-naphthamide]
> 5.00	NCCC[C@@H]1N[C@H](CNC(=O)c2ccc3ccccc3c2)CCN(Cc2cccc(Cl)c2)C1=O [Compound 341, N-(((3S,5S)-3-(3-aminopropyl)-1-(3-chlorobenzyl)-2-oxo-1,4-diazepan-5-yl)methyl)-2-naphthamide]
> 7.00	N=C(N)NCCC[C@@H]1N[C@H](CNC(=O)Cc2c[nH]c3ccccc23)CCN(CC2CCCCC2)C1=O [Compound 481, N-(((3S,5S)-1-(cyclohexylmethyl)-3-(3-guanidinopropyl)-2-oxo-1,4-diazepan-5-yl)methyl)-2-(1 H-indol-3-yl)acetamide]
> 5.00	CN(C)C(=O)C(CN1CC[C@@H](CNC(=O)c2ccc3ccccc3c2)N[C@@H](CCCNC(=N)N)C1=O)c1ccccc1 (stereo partly drawn) [Compound 307, N-(((3S,5S)-1-(3-(dimethylamino)-3-oxo-2-phenylpropyl)-3-(3-guanidinopropyl)-2-oxo-1,4-diazepan-5-yl)methyl)-2-naphthamide]
> 8.00	O=C(/C=C/c1ccc(OC(F)(F)F)cc1)NC[C@@H]1CCN(Cc2cc(Cl)cc(Cl)c2)C(=O)[C@H](CCN2CCCCC2)N1 [Compound 532, (E)-N-(((3S,5S)-1-(3,5-dichlorobenzyl)-2-oxo-3-(2-(piperidin-1-yl)ethyl)-1,4-diazepan-5-yl)methyl)-3-(4-(trifluoromethoxy)phenyl)acrylamide]
> 6.00	N=C(N)NCCC[C@@H]1N[C@H](CNC(=O)c2cc3ccccc3[nH]2)CCN(CC(c2ccccc2)c2ccccc2)C1=O [Compound 109, N-(((3S,5S)-1-(2,2-diphenylethyl)-3-(3-guanidinopropyl)-2-oxo-1,4-diazepan-5-yl)methyl)-1H-indole-2-carboxamide]
> 7.00	CC[C@H](CN1CC[C@@H](CNC(=O)c2ccc3cc(Cl)ccc3c2)N[C@@H](CNC(C)C)C1=O)c1ccccc1 [Compound 499, 6-chloro-N-(((3S,5S)-3-((isopropylamino)methyl)-2-oxo-1-((S)-2-phenylbutyl)-1,4-diazepan-5-yl)methyl)-2-naphthamide]
> 6.00	N=C(N)NCCC[C@@H]1N[C@H](CNC(=O)c2cc3ccccc3s2)CCN(CC(c2ccccc2)c2ccccc2)C1=O [Compound 135, N-(((3S,5S)-1-(2,2-diphenylethyl)-3-(3-guanidinopropyl)-2-oxo-1,4-diazepan-5-yl)methyl)benzo[b]thiophene-2-carboxamide]
> 6.00	C=CCOC(CN1CC[C@@H](CNC(=O)c2ccc3ccccc3c2)N[C@@H](CCCNC(=N)N)C1=O)c1ccccc1 (stereo partly drawn) [Compound 292, N-(((3S,5S)-1-(2-(allyloxy)-2-phenylethyl)-3-(3-guanidinopropyl)-2-oxo-1,4-diazepan-5-yl)methyl)-2-naphthamide]
> 7.00	CC[C@H](CN1CCC(CNC(=O)c2ccc3cc(Cl)ccc3c2)NC(C2CCN(CCC(C)C)CC2)C1=O)c1ccccc1 (stereo partly shown) [Compound 448]
> 7.00	CC[C@H](CN1CC[C@@H](CNC(=O)c2ccccc2-c2ccc(Cl)cc2)N[C@@H](CCN2CCCCC2)C1=O)c1ccccc1 [Compound 497, 4′-chloro-N-(((3S,5S)-2-oxo-1-((S)-2-phenylbutyl)-3-(2-(piperidin-1-yl)ethyl)-1,4-diazepan-5-yl)methyl)biphenyl-2-carboxamide]
> 7.00	Cc1ccc(/C=C/C(=O)NC[C@@H]2CCN(CC(c3ccccc3)c3ccccc3)C(=O)[C@H](CCN3CCCCC3)N2)cc1 [Compound 285, (E)-N-(((3S,5S)-1-(2,2-diphenylethyl)-2-oxo-3-(2-(piperidin-1-yl)ethyl)-1,4-diazepan-5-yl)methyl)-3-p-tolylacrylamide]
> 7.00	CC[C@H](CN1CC[C@@H](CNC(=O)c2ccc3cc(OC)ccc3c2)N[C@@H](CCN2CCCCC2)C1=O)c1ccccc1 [Compound 537, 6-methoxy-N-(((3S,5S)-2-oxo-1-((S)-2-phenylbutyl)-3-(2-(piperidin-1-yl)ethyl)-1,4-diazepan-5-yl)methyl)-2-naphthamide]
> 6.00	CC[C@H](CN1CC[C@@H](CNC(=O)c2ccc(Cl)c(Cl)c2)N[C@@H](CCNc2ccccc2)C1=O)c1ccccc1 [Compound 428, 3,4-dichloro-N-(((3S,5S)-2-oxo-3-(2-(phenylamino)ethyl)-1-((S)-2-phenylbutyl)-1,4-diazepan-5-yl)methyl)benzamide]
> 5.00	NCCC[C@@H]1N[C@H](CNC(=O)c2ccc3ccccc3c2)CCN(Cc2ccc(Cl)cc2)C1=O [Compound 323, N-(((3S,5S)-3-(3-aminopropyl)-1-(4-chlorobenzyl)-2-oxo-1,4-diazepan-5-yl)methyl)-2-naphthamide]

From patent US8008291B2 (Mimetica Pty Ltd, priority 2008, dated 2011)
